Assay results published in paper PMC8617031, “Development of a BCL-xL and BCL-2 dual degrader with improved anti-leukemic activity,” (Nature Communications, 2021).
Values joined by “and” are separate entries in the source; they are usually repeats but may differ in a detail not shown here. Equal values may be shown once.

Assays:
[1] = molecular target: T1, His-tagged BCL-xL (Homo sapiens, UniProt Q07817); test: AlphaScreen competitive binary binding, BCL-xL (biotin-BAD peptide)
T1 construct: purchased Sigma-Aldrich SRP0187
T1 sequence (Q07817 whole entry): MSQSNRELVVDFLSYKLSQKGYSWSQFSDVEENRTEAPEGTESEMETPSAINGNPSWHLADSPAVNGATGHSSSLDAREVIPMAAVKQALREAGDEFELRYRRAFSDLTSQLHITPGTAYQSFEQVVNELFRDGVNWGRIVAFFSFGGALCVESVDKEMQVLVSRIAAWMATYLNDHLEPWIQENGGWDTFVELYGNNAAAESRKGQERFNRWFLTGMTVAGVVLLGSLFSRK
Method: (§1) The reagents were diluted in a buffer containing 250 mM HEPES pH 7.5, 1 M NaCl, 1% BSA, and 0.05% Tween-80. His-tagged BCL-xL (0.5 nM, Cat. No. SRP0187, Sigma-Aldrich) or BCL-2 (1 nM, Cat. No. SRP0186, Sigma-Aldrich) were incubated with serial diluted 753a or 753b and 2 nM biotin-tagged BAD (biotin-[…] amino-terminal, AnaSpec, for BCL-xL) or 10 nM BIM peptides (biotin-[…] N-terminal, AnaSpec, for BCL-2) to a final volume of 40 µl in a 96-well PCR plate. […] After incubation for 2 h, 5 µl 6× His-acceptor beads (Cat. No. AL128M, PerkinElmer) were added to each well at 20 µg/ml final concentration and incubated for 1 h. Then 5 µl streptavidin-donor beads were added (Cat. No. 6760002, PerkinElmer) to each well at 20 µg/ml final concentration and incubated for 45 min. At the end of the incubation period, 17 µl of each sample was transferred in adjacent wells of 384-well proxy plate (Cat. No. 6008280, PerkinElmer). The plate was scanned using the Alpha program on Biotek’s Synergy Neo2 multimode plate reader. The inhibition constant (Ki) was calculated using the non-linear regression, one site, competitive binding, Fit Ki function on GraphPad Prism 9 software, based on experimentally determined dissociation constant (Kd) for each protein–peptide pair.

[2] = molecular target: T2, His-tagged BCL-2 (Homo sapiens, UniProt P10415); test: AlphaScreen competitive binary binding, BCL-2 (biotin-BIM peptide)
T2 construct: purchased Sigma-Aldrich SRP0186
T2 sequence (P10415 whole entry): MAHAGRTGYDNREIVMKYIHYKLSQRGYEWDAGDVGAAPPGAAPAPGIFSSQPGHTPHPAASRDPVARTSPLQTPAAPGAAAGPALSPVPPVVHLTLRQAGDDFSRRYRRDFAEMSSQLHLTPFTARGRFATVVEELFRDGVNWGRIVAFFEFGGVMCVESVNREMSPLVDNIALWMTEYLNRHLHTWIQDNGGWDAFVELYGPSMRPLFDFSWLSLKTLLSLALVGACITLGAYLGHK
Method: as §1

[3] = AlphaScreen, Supplementary Fig. 6

Cc1ncsc1-c1ccc([C@H](C)NC(=O)[C@@H]2C[C@@H](O)CN2C(=O)[C@@H](NC(=O)CCCCCCC(=O)N2CCN(C[C@@]3(C)CCC(c4ccc(Cl)cc4)=C(CN4CCN(c5ccc(C(=O)NS(=O)(=O)c6ccc(N[C@H](CCN7CCOCC7)CSc7ccccc7)c(S(=O)(=O)C(F)(F)F)c6)cc5)CC4)C3)CC2)C(C)(C)C)cc1 [753a]
binary binding affinity to BCL-xL (in words) [1, 3]: much weaker than that of the warhead ABT263 | IC50 ([1]; BCL-xL Rep-1): 39 nM | Ki ([1]; BCL-xL Rep-1): 1.75 nM | Alpha signal (raw counts) ([1]; BCL-xL Rep-1, plate row B, 5 uM): 27085 and 24738 | Alpha signal (raw counts) ([1]; BCL-xL Rep-1, plate row C, 1.25 uM): 28062 and 40230 | Alpha signal (raw counts) ([1]; BCL-xL Rep-1, plate row D, 0.3125 uM): 145116 and 115021 | Alpha signal (raw counts) ([1]; BCL-xL Rep-1, plate row E, 0.078125 uM): 433630 and 441172 | Alpha signal (raw counts) ([1]; BCL-xL Rep-1, plate row F, 0.0195312 uM): 726417 and 752069 | Alpha signal (raw counts) ([1]; BCL-xL Rep-1, plate row G, 0.00488281 uM): 950071 and 945138 | Alpha signal (raw counts) ([1]; BCL-xL Rep-1, plate row H, 0.0012207 uM): 1050463 and 1074380 | Alpha signal (raw counts) ([1]; BCL-xL Rep-1, plate row I, 0.000305176 uM): 1307721 and 1309993 | Alpha signal (raw counts) ([1]; BCL-xL Rep-1, plate row J, 7.62939e-5 uM): 1113170 and 1173569 | Alpha signal (raw counts) ([1]; BCL-xL Rep-1, plate row K, 1.90735e-5 uM): 1107772 and 1259986 | Alpha signal (raw counts) ([1]; BCL-xL Rep-2, 7.62939e-5 uM): 1188088 and 1161046 | Alpha signal (raw counts) ([1]; BCL-xL Rep-2, plate row B, 5 uM): 24343 and 23695 | Alpha signal (raw counts) ([1]; BCL-xL Rep-2, plate row C, 1.25 uM): 25479 and 38889 | Alpha signal (raw counts) ([1]; BCL-xL Rep-2, plate row D, 0.3125 uM): 95317 and 147841 | Alpha signal (raw counts) ([1]; BCL-xL Rep-2, plate row E, 0.078125 uM): 336804 and 343845 | Alpha signal (raw counts) ([1]; BCL-xL Rep-2, plate row F, 0.0195312 uM): 767361 and 853215 | Alpha signal (raw counts) ([1]; BCL-xL Rep-2, plate row G, 0.00488281 uM): 937707 and 1041403 | Alpha signal (raw counts) ([1]; BCL-xL Rep-2, plate row H, 0.0012207 uM): 1127054 and 1147040 | Alpha signal (raw counts) ([1]; BCL-xL Rep-2, plate row I, 0.000305176 uM): 1272095 and 1259132 | Alpha signal (raw counts) ([1]; BCL-xL Rep-2, plate row K, 1.90735e-5 uM): 1255062 and 1549086 | Ki ([1]; BCL-xL, mean of the two replicate values (line without label)): 1.52 nM | Ki ([1]; BCL-xL, second value (line without label below Rep-1, apparently Rep-2)): 1.29 nM | binary binding affinity to BCL-2 (in words) [2, 3]: much weaker than that of the warhead ABT263 | Alpha signal (raw counts) ([2]; BCL-2 Rep-2, 0.00488281 uM): 457099 and 452255 | Alpha signal (raw counts) ([2]; BCL-2 Rep-2, plate row C, 1.25 uM): 11131 and 19293 | Alpha signal (raw counts) ([2]; BCL-2 Rep-2, plate row D, 0.3125 uM): 23398 and 21436 | Alpha signal (raw counts) ([2]; BCL-2 Rep-2, plate row E, 0.078125 uM): 28167 and 26661 | Alpha signal (raw counts) ([2]; BCL-2 Rep-2, plate row F, 0.0195312 uM): 165828 and 146355 | Alpha signal (raw counts) ([2]; BCL-2 Rep-2, plate row H, 0.0012207 uM): 607122 and 550701 | Alpha signal (raw counts) ([2]; BCL-2 Rep-2, plate row I, 0.000305176 uM): 723572 and 761986 | Alpha signal (raw counts) ([2]; BCL-2 Rep-2, plate row J, 7.62939e-5 uM): 723255 and 767572 | Alpha signal (raw counts) ([2]; BCL-2 Rep-2, plate row K, 1.90735e-5 uM): 723831 and 708342
